Data taken from patent US20080194585A1, “Fungicidal Pyrazine Derivatives” (priority 2005, published 2008).
Marks after values point to notes of the source that are not given here.

Assays:
[1] = test system: Phytophthora infestans; assay: whole plant or invertebrate; assay type: in vivo; details: 200 ppm
[2] = test system: Rhizoctonia oryzae; assay: Test G: turf brown patch, preventive spray on creeping bent grass seedlings
Description: (the causal agent of turf brown patch) and incubated in a saturated atmosphere at 27° C. for 24 h, and then moved to a growth chamber at 27° C. for 5 days, after which disease ratings were made.

[3] = test system: Plasmopara viticola; assay: Test D: grape downy mildew, spray after inoculation of grape seedlings; assay type: in vivo; details: 200 ppm
Description: Upon removal, disease ratings were made. […] A dash (-) indicates no test results.

[4] = test system: Septoria tritici; assay: Test J: wheat leaf blotch, preventive spray on wheat seedlings; assay type: in vivo
Description: A dash (-) indicates no test results.

[5] = test system: Erysiphe graminis f. sp. tritici; assay: Test L: wheat powdery mildew, preventive spray on wheat seedlings
[6] = test system: Sclerotinia sclerotiorum; assay: Test C: cucumber white mold, preventive spray on cucumber seedlings
[7] = test system: Pythium aphanidermatum; assay: Test A: bluegrass pythium blight, preventive spray on bluegrass seedlings; details: 200 ppm
[8] = test system: Puccinia recondita f. sp. tritici; assay: Test K: wheat leaf rust, preventive spray on wheat seedlings
[9] = test system: fusarium graminearium; assay: Test I: wheat head scab, preventive spray on wheat seedlings; details: 200 ppm
Description: (the causal agent of wheat head scab) and incubated in a saturated atmosphere at 20° C. for 72 h, and then moved to a growth chamber at 22° C. for 5 days, after which disease ratings were made.

[10] = test system: Botrytis cinerea; assay: Test E: tomato botrytis, preventive spray on tomato seedlings
[11] = test system: Septoria nodorum; assay: Test H: wheat glum blotch, preventive spray on wheat seedlings
Description: (the causal agent of wheat glum blotch) and incubated in a saturated atmosphere at 20° C. for 48 h, and then moved to a growth chamber at 22° C. for 5 days, after which disease ratings were made.

[12] = test system: Colletotrichum orbiculare; assay: Test B: cucumber Colletotrichum anthracnose, preventive spray on cucumber seedlings

CC(C)Cn1c(-c2c(Cl)cccc2Cl)c(Cl)nc(-n2cccn2)c1=O [compound 43]
Test F disease control rating [1]: 0% | Test G disease control rating ([2]; 200 ppm): 92% | Test D disease control rating [3]: 0% | Test J disease control rating ([4]; 40 ppm (*)): 100* % | Test L disease control rating ([5]; 200 ppm): 96% | Test C disease control rating ([6]; 200 ppm): 94% | Test A disease control rating [7]: 0% | Test K disease control rating ([8]; 200 ppm): 100% | Test I disease control rating [9]: 0% | Test E disease control rating ([10]; 200 ppm): 100% | Test H disease control rating ([11]; 200 ppm): 100% | Test B disease control rating ([12]; 200 ppm): 99%

CC(C)Cn1c(-c2ccc(Cl)cc2F)c(Cl)nc(-n2cccn2)c1=O [compound 45]
Test F disease control rating [1]: 0% | Test G disease control rating ([2]; 200 ppm): 26% | Test D disease control rating [3]: 0% | Test J disease control rating ([4]; 40 ppm (*)): 100* % | Test L disease control rating ([5]; 200 ppm): 85% | Test C disease control rating ([6]; 200 ppm): 85% | Test A disease control rating [7]: 0% | Test K disease control rating ([8]; 200 ppm): 100% | Test I disease control rating [9]: 82% | Test E disease control rating ([10]; 200 ppm): 100% | Test H disease control rating ([11]; 200 ppm): 100% | Test B disease control rating ([12]; 200 ppm): 100%

O=c1c(-n2cccn2)nc(Cl)c(-c2c(F)cccc2F)n1C1CCCCC1 [compound 47]
Test F disease control rating [1]: 0% | Test G disease control rating ([2]; 200 ppm): 92% | Test D disease control rating [3]: 0% | Test J disease control rating ([4]; 200 ppm): 100% | Test L disease control rating ([5]; 200 ppm): 99% | Test C disease control rating ([6]; 200 ppm): 0% | Test A disease control rating [7]: 74% | Test K disease control rating ([8]; 200 ppm): 95% | Test I disease control rating [9]: 78% | Test E disease control rating ([10]; 200 ppm): 100% | Test H disease control rating ([11]; 200 ppm): 99% | Test B disease control rating ([12]; 200 ppm): 54%

CC(C)Cn1c(-c2cccc(F)c2F)c(Cl)nc(-n2cccn2)c1=O [compound 50]
Test F disease control rating [1]: 0% | Test G disease control rating ([2]; 200 ppm): 95% | Test D disease control rating [3]: 0% | Test J disease control rating ([4]; 40 ppm (*)): 100* % | Test L disease control rating ([5]; 200 ppm): 94% | Test C disease control rating ([6]; 200 ppm): 98% | Test A disease control rating [7]: 0% | Test K disease control rating ([8]; 200 ppm): 100% | Test I disease control rating [9]: 0% | Test E disease control rating ([10]; 200 ppm): 100% | Test H disease control rating ([11]; 200 ppm): 100% | Test B disease control rating ([12]; 200 ppm): 0%

CC(C)Cn1c(-c2cc(F)ccc2F)c(Cl)nc(-n2cccn2)c1=O [compound 56]
Test F disease control rating [1]: 0% | Test G disease control rating ([2]; 200 ppm): 92% | Test D disease control rating [3]: 29% | Test J disease control rating ([4]; 40 ppm (*)): 100* % | Test L disease control rating ([5]; 200 ppm): 99% | Test C disease control rating ([6]; 200 ppm): 99% | Test A disease control rating [7]: 0% | Test K disease control rating ([8]; 200 ppm): 99% | Test I disease control rating [9]: 60% | Test E disease control rating ([10]; 200 ppm): 100% | Test H disease control rating ([11]; 200 ppm): 100% | Test B disease control rating ([12]; 200 ppm): 99%

CC(C)Cn1c(-c2c(F)ccc(F)c2F)c(Cl)nc(-n2cccn2)c1=O [compound 57]
Test F disease control rating [1]: 0% | Test G disease control rating ([2]; 200 ppm): 98% | Test D disease control rating [3]: 32% | Test J disease control rating ([4]; 40 ppm (*)): 99* % | Test L disease control rating ([5]; 200 ppm): 100% | Test C disease control rating ([6]; 200 ppm): 98% | Test A disease control rating [7]: 0% | Test K disease control rating ([8]; 200 ppm): 100% | Test I disease control rating [9]: 0% | Test E disease control rating ([10]; 200 ppm): 100% | Test H disease control rating ([11]; 200 ppm): 100% | Test B disease control rating ([12]; 200 ppm): 100%

CCC(C)Cn1c(-c2c(F)cccc2F)c(Cl)nc(-n2ccc(C)n2)c1=O (stereo not drawn) [compound 66]
Test F disease control rating [1]: 0% | Test G disease control rating ([2]; 40 ppm (*)): 95* % | Test D disease control rating [3]: 0% | Test J disease control rating ([4]; 40 ppm (*)): 100* % | Test L disease control rating ([5]; 40 ppm (*)): 99* % | Test C disease control rating ([6]; 40 ppm (*)): 0* % | Test A disease control rating [7]: 0% | Test K disease control rating ([8]; 40 ppm (*)): 97* % | Test I disease control rating [9]: 0% | Test E disease control rating ([10]; 40 ppm (*)): 100* % | Test H disease control rating ([11]; 40 ppm (*)): 89* % | Test B disease control rating ([12]; 40 ppm (*)): 62* %

CCC(C)Cn1c(-c2c(F)cccc2F)c(Cl)nc(-n2cnc(C#N)c2C#N)c1=O (stereo not drawn) [compound 67]
Test F disease control rating [1]: 0% | Test G disease control rating ([2]; 40 ppm (*)): 0* % | Test D disease control rating [3]: 0% | Test J disease control rating ([4]; 200 ppm): 24% | Test L disease control rating ([5]; 40 ppm (*)): 0* % | Test C disease control rating ([6]; 200 ppm): 0% | Test A disease control rating [7]: 0% | Test K disease control rating ([8]; 40 ppm (*)): 0* % | Test I disease control rating [9]: 0% | Test E disease control rating ([10]; 40 ppm (*)): 0* % | Test H disease control rating ([11]; 40 ppm (*)): 0* % | Test B disease control rating ([12]; 40 ppm (*)): 0* %

CCC(C)Cn1c(-c2c(F)cccc2F)c(Cl)nc(-n2cnc(Cl)c2Cl)c1=O (stereo not drawn) [compound 68]
Test F disease control rating [1]: 0% | Test G disease control rating ([2]; 40 ppm (*)): 0* % | Test D disease control rating [3]: 0% | Test J disease control rating ([4]; 40 ppm (*)): 26* % | Test L disease control rating ([5]; 40 ppm (*)): 0* % | Test C disease control rating ([6]; 200 ppm): 0% | Test A disease control rating [7]: 0% | Test K disease control rating ([8]; 40 ppm (*)): 0* % | Test I disease control rating [9]: 0% | Test E disease control rating ([10]; 40 ppm (*)): 0* % | Test H disease control rating ([11]; 40 ppm (*)): 0* % | Test B disease control rating ([12]; 40 ppm (*)): 0* %

CCc1nccn1-c1nc(Cl)c(-c2c(F)cccc2F)n(CC(C)CC)c1=O (stereo not drawn) [compound 70]
Test F disease control rating [1]: 0% | Test G disease control rating ([2]; 40 ppm (*)): 0* % | Test D disease control rating [3]: 0% | Test J disease control rating ([4]; 40 ppm (*)): 83* % | Test L disease control rating ([5]; 40 ppm (*)): 0* % | Test C disease control rating ([6]; 200 ppm): 0% | Test A disease control rating [7]: 0% | Test K disease control rating ([8]; 40 ppm (*)): 55* % | Test I disease control rating [9]: 0% | Test E disease control rating ([10]; 40 ppm (*)): 0* % | Test H disease control rating ([11]; 40 ppm (*)): 0* % | Test B disease control rating ([12]; 40 ppm (*)): 0* %

CCCc1nccn1-c1nc(Cl)c(-c2c(F)cccc2F)n(CC(C)CC)c1=O (stereo not drawn) [compound 71]
Test F disease control rating [1]: 0% | Test G disease control rating ([2]; 40 ppm (*)): 30* % | Test D disease control rating [3]: 0% | Test J disease control rating ([4]; 40 ppm (*)): 64* % | Test L disease control rating ([5]; 40 ppm (*)): 0* % | Test C disease control rating ([6]; 200 ppm): 0% | Test A disease control rating [7]: 0% | Test K disease control rating ([8]; 40 ppm (*)): 68* % | Test I disease control rating [9]: 0% | Test E disease control rating ([10]; 40 ppm (*)): 0* % | Test H disease control rating ([11]; 40 ppm (*)): 0* % | Test B disease control rating ([12]; 40 ppm (*)): 0* %

CCC(C)Cn1c(-c2c(F)cccc2F)c(Cl)nc(-n2ccnc2C(C)C)c1=O (stereo not drawn) [compound 72]
Test F disease control rating [1]: 0% | Test G disease control rating ([2]; 40 ppm (*)): 58* % | Test D disease control rating [3]: 0% | Test J disease control rating ([4]; 40 ppm (*)): 74* % | Test L disease control rating ([5]; 40 ppm (*)): 53* % | Test C disease control rating ([6]; 200 ppm): 0% | Test A disease control rating [7]: 0% | Test K disease control rating ([8]; 40 ppm (*)): 61* % | Test I disease control rating [9]: 0% | Test E disease control rating ([10]; 40 ppm (*)): 0* % | Test H disease control rating ([11]; 40 ppm (*)): 0* % | Test B disease control rating ([12]; 40 ppm (*)): 0* %

CC(C)Cn1c(-c2ccc(C(C)(C)C)cc2)c(Cl)nc(-n2cccn2)c1=O [compound 74]
Test F disease control rating [1]: 0% | Test G disease control rating ([2]; 40 ppm (*)): 0* % | Test D disease control rating [3]: 0% | Test J disease control rating ([4]; 40 ppm (*)): 26* % | Test L disease control rating ([5]; 40 ppm (*)): 75* % | Test C disease control rating ([6]; 200 ppm): 0% | Test A disease control rating [7]: 0% | Test K disease control rating ([8]; 40 ppm (*)): 80* % | Test I disease control rating [9]: 0% | Test E disease control rating ([10]; 40 ppm (*)): 0* % | Test H disease control rating ([11]; 40 ppm (*)): 0* % | Test B disease control rating ([12]; 40 ppm (*)): 0* %
